Measurements reported in patent publication US7271165B2, “Rifamycin analogs and uses thereof” (priority 2003, dated 2007).
≈ marks a conversion by molar mass, not a printed value.

How the values were obtained:
[1] = test system: E. faecalis; test: MIC assay, E. faecalis; format: cell-based, Enterococcus faecalis
[2] = test system: H. flu; format: cell-based, H. influenza; conditions: H. flu
[3] = test system: S. pneumo.; test: MIC assay, S. pneumo.; format: cell-based, Streptococcus pneumoniae
[4] = test system: E coli; test: MIC assay, E coli; format: cell-based
[5] = test system: S. aureus; test: MIC assay, S. aureus; format: cell-based, Staphylococcus aureus

Row | Structure (SMILES) | MIC (μg/mL) E. faecalis [1] [µg/mL] | MIC (μg/mL) H. flu [2] [µg/mL] | MIC (μg/mL) S. pneumo. [3] [µg/mL] | MIC (μg/mL) E coli [4] [µg/mL] | MIC (μg/mL) S. aureus [5] [µg/mL]
1 | COC1C=COC2(C)Oc3c(C)c(O)c4c(=O)c(c5oc6cc(N7CCC(N)CC7)cc(O)c6nc-5c4c3C2=O)NC(=O)C(C)=CC=CC(C)C(O)C(C)C(O)C(C)C(O)C1C (centres unmarked) [Compound 39, 25-O-deacetyl-3′-hydroxy-5′-[4-amino-1-piperidinyl]benzoxazinorifamycin] | 2 (≈ 2330 nM) | 0.25 (≈ 292 nM) | 0.001 (≈ 1.17 nM) | >8 | 0.03 (≈ 35 nM)
2 | COCCOC(=O)NC1CCN(c2cc(O)c3nc4c5c6c7c(C)c(O)c5c(=O)c(c-4oc3c2)NC(=O)C(C)=CC=CC(C)C(O)C(C)C(O)C(C)C(OC(C)=O)C(C)C(OC)C=COC(C)(O7)C6=O)CC1 (centres unmarked) [Compound 41, 3′-hydroxy-5′-[4-methoxyethylcarbamyl-1-piperidinyl]benzoxazinorifamycin] | >8 | 2 (≈ 2000 nM) | 0.0005 (≈ 0.499 nM) | >8 | 0.25 (≈ 250 nM)
3 | COC1C=COC2(C)Oc3c(C)c(O)c4c(=O)c(c5oc6cc(N7CCC(NC(C)=O)CC7)cc(O)c6nc-5c4c3C2=O)NC(=O)C(C)=CC=CC(C)C(O)C(C)C(O)C(C)C(O)C1C (centres unmarked) [Compound 43, 25-O-deacetyl-3′-hydroxy-5′-[4-acetamide-1-piperidinyl]benzoxazinorifamycin] | 2 (≈ 2220 nM) | 0.5 (≈ 556 nM) | 0.002 (≈ 2.22 nM) | >8 | 0.03 (≈ 33.4 nM)
4 | COC1C=COC2(C)Oc3c(C)c(O)c4c(=O)c(c5oc6cc(N7CCC(NC(C)=O)CC7)cc(O)c6nc-5c4c3C2=O)NC(=O)C(C)=CC=CC(C)C(O)C(C)C(O)C(C)C(OC(C)=O)C1C (centres unmarked) [Compound 44] | 2 (≈ 2130 nM) | 0.25 (≈ 266 nM) | 0.008 (≈ 8.5 nM) | >8 | 0.06 (≈ 63.8 nM)
5 | COC1C=COC2(C)Oc3c(C)c(O)c4c(=O)c(c5oc6cc(N7CCC(NC(=O)SC)CC7)cc(O)c6nc-5c4c3C2=O)NC(=O)C(C)=CC=CC(C)C(O)C(C)C(O)C(C)C(OC(C)=O)C1C (centres unmarked) [Compound 45, 3′-hydroxy-5′-[4-S-methylthiocarbamyl-1-piperidinyl]benzoxazinorifamycin] | 4 (≈ 4110 nM) | 0.5 (≈ 514 nM) | 0.001 (≈ 1.03 nM) | 8 (≈ 8220 nM) | 0.015 (≈ 15.4 nM)
6 | COC1C=COC2(C)Oc3c(C)c(O)c4c(=O)c(c5oc6cc(N7CC8CCCN(C(C)=O)C8C7)cc(O)c6nc-5c4c3C2=O)NC(=O)C(C)=CC=CC(C)C(O)C(C)C(O)C(C)C(O)C1C [Compound 46, 25-O-deacetyl-3′-hydroxy-5′-[1-acetyl-(4aR,7aR)-octahydro-6H-pyrrolo[3,4-b]pyridin-6-yl]benzoxazinorifamycin] | 2 (≈ 2160 nM) | 0.5 (≈ 541 nM) | 0.00006 (≈ 0.0649 nM) | >8 | 0.004 (≈ 4.32 nM)
7 | COC1C=COC2(C)Oc3c(C)c(O)c4c(=O)c(c5oc6cc(N7CC8CCCN(C(C)=O)C8C7)cc(O)c6nc-5c4c3C2=O)NC(=O)C(C)=CC=CC(C)C(O)C(C)C(O)C(C)C(OC(C)=O)C1C [Compound 47, 3′-hydroxy-5′-[1-acetyl-(4aR,7aR)-octahydro-6H-pyrrolo[3,4-b]pyridin-6-yl]benzoxazinorifamycin] | 1 (≈ 1030 nM) | 0.25 (≈ 259 nM) | 0.002 (≈ 2.07 nM) | >8 | 0.008 (≈ 8.27 nM)
8 | COC1C=COC2(C)Oc3c(C)c(O)c4c(=O)c(c5oc6cc(N7CCC(NC(=O)OC(C)(C)C)CC7)cc(O)c6nc-5c4c3C2=O)NC(=O)C(C)=CC=CC(C)C(O)C(C)C(O)C(C)C(OC(C)=O)C1C (centres unmarked) [Compound 48] | 2 (≈ 2000 nM) | 1 (≈ 1000 nM) | 0.00025 (≈ 0.25 nM) | >8 | 0.008 (≈ 8.01 nM)
9 | COC1C=COC2(C)Oc3c(C)c(O)c4c(=O)c(c5oc6cc(N7CCC(NC(=O)N8CCC(NC(=O)SC)CC8)CC7)cc(O)c6nc-5c4c3C2=O)NC(=O)C(C)=CC=CC(C)C(O)C(C)C(O)C(C)C(OC(C)=O)C1C (centres unmarked) [Compound 49, 3′-hydroxy-5′-[4-(4-(S-methylthiocarbamyl)-1-piperidinylcarbonyl)amino-1-piperidinyl]benzoxazinorifamycin] | 8 (≈ 7280 nM) | 2 (≈ 1820 nM) | 0.0005 (≈ 0.455 nM) | >8 | 0.06 (≈ 54.6 nM)
10 | COC1C=COC2(C)Oc3c(C)c(O)c4c(=O)c(c5oc6cc(N7CCC(NC(=O)N8CCN(C)CC8)CC7)cc(O)c6nc-5c4c3C2=O)NC(=O)C(C)=CC=CC(C)C(O)C(C)C(O)C(C)C(OC(C)=O)C1C (centres unmarked) [Compound 50, 3′-hydroxy-5′-[4-(4-methylpiperazinylcarbonyl)amino-1-piperidinyl]benzoxazinorifamycin] | 4 (≈ 3900 nM) | 0.5 (≈ 488 nM) | 0.00012 (≈ 0.117 nM) | >8 | 0.03 (≈ 29.3 nM)
11 | CCOC(=O)NCC1CCN(c2cc(O)c3nc4c5c6c7c(C)c(O)c5c(=O)c(c-4oc3c2)NC(=O)C(C)=CC=CC(C)C(O)C(C)C(O)C(C)C(OC(C)=O)C(C)C(OC)C=COC(C)(O7)C6=O)CC1 (centres unmarked) [Compound 51] | 8 (≈ 8120 nM) | 0.25 (≈ 254 nM) | 0.002 (≈ 2.03 nM) | 8 (≈ 8120 nM) | 0.06 (≈ 60.9 nM)
12 | COC1C=COC2(C)Oc3c(C)c(O)c4c(=O)c(c5oc6cc(N7CCC(NC(=O)OC(C)(C)C)CC7)cc(O)c6nc-5c4c3C2=O)NC(=O)C(C)=CC=CC(C)C(O)C(C)C(O)C(C)C(O)C1C (centres unmarked) [Compound 52, 25-O-deacetyl-3′-hydroxy-5′-[4-(2,2-dimethylethyl)carbamyl-1-piperidinyl]benzoxazinorifamycin] | 4 (≈ 4180 nM) | 0.12 (≈ 125 nM) | 0.00025 (≈ 0.261 nM) | >8 | 0.015 (≈ 15.7 nM)
13 | COC1C=COC2(C)Oc3c(C)c(O)c4c(=O)c(c5oc6cc(N7CC8C(C7)C8N(C)C)cc(O)c6nc-5c4c3C2=O)NC(=O)C(C)=CC=CC(C)C(O)C(C)C(O)C(C)C(OC(C)=O)C1C [Compound 53, 3′-hydroxy-5′-[6-N,N-dimethylamino-(1R,5S)-3-azabicyclo[3.1.0]hex-3-yl]benzoxazinorifamycin] | 4 (≈ 4320 nM) | 2 (≈ 2160 nM) | 0.008 (≈ 8.65 nM) | >8 | 0.06 (≈ 64.9 nM)
14 | COC1C=COC2(C)Oc3c(C)c(O)c4c(=O)c(c5oc6cc(N7CC8C(C7)C8N(C)C)cc(O)c6nc-5c4c3C2=O)NC(=O)C(C)=CC=CC(C)C(O)C(C)C(O)C(C)C(O)C1C [Compound 54, 3′-hydroxy-5′-[6-N,N-dimethylamino-(1R,5S)-3-azabicyclo[3.1.0]hex-3-yl]benzoxazinorifamycin] | 2 (≈ 2260 nM) | 0.25 (≈ 283 nM) | 0.0005 (≈ 0.566 nM) | >8 | 0.008 (≈ 9.06 nM)
15 | COC1C=COC2(C)Oc3c(C)c(O)c4c(=O)c(c5oc6cc(N7CCC(CNC(C)=O)CC7)cc(O)c6nc-5c4c3C2=O)NC(=O)C(C)=CC=CC(C)C(O)C(C)C(O)C(C)C(OC(C)=O)C1C (centres unmarked) [Compound 55, 3′-hydroxy-5′-[4-acetylaminomethyl-1-piperidinyl]benzoxazinorifamycin] | 1 (≈ 1050 nM) | 0.5 (≈ 524 nM) | 0.00025 (≈ 0.262 nM) | 8 (≈ 8380 nM) | 0.008 (≈ 8.38 nM)
16 | COC1C=COC2(C)Oc3c(C)c(O)c4c(=O)c(c5oc6cc(N7CCC(CNC(C)=O)CC7)cc(O)c6nc-5c4c3C2=O)NC(=O)C(C)=CC=CC(C)C(O)C(C)C(O)C(C)C(O)C1C (centres unmarked) [Compound 56, 25-O-deacetyl-3′-hydroxy-5′-[4-acetylaminomethyl-1-piperidinyl]benzoxazinorifamycin] | 0.12 (≈ 131 nM) | 0.25 (≈ 274 nM) | 0.001 (≈ 1.1 nM) | 8 (≈ 8760 nM) | 0.004 (≈ 4.38 nM)
17 | COC1C=COC2(C)Oc3c(C)c(O)c4c(=O)c(c5oc6cc(N7CCC(c8ccccc8)CC7)cc(O)c6nc-5c4c3C2=O)NC(=O)C(C)=CC=CC(C)C(O)C(C)C(O)C(C)C(OC(C)=O)C1C (centres unmarked) [Compound 57, 3′-hydroxy-5′-[4-phenyl-1-piperidinyl]benzoxazinorifamycin] | 2 (≈ 2080 nM) | 0.5 (≈ 521 nM) | 0.0005 (≈ 0.521 nM) | 8 (≈ 8330 nM) | 0.008 (≈ 8.33 nM)
18 | COC1C=COC2(C)Oc3c(C)c(O)c4c(=O)c(c5oc6cc(N7CC8CCCN(C)C8C7)cc(O)c6nc-5c4c3C2=O)NC(=O)C(C)=CC=CC(C)C(O)C(C)C(O)C(C)C(OC(C)=O)C1C [Compound 58, 3′-hydroxy-5′-[1-methyl-(4aS,7aS)-octahydro-6H-pyrrolo[3,4-b]pyridin-6-yl]benzoxazinorifamycin] | 1 (≈ 1060 nM) | 0.25 (≈ 266 nM) | 0.004 (≈ 4.26 nM) | >8 | 0.03 (≈ 31.9 nM)
19 | COC1C=COC2(C)Oc3c(C)c(O)c4c(=O)c(c5oc6cc(N7CC8CCCN(C)C8C7)cc(O)c6nc-5c4c3C2=O)NC(=O)C(C)=CC=CC(C)C(O)C(C)C(O)C(C)C(O)C1C [Compound 59, 25-O-deacetyl-3′-hydroxy-5′-[1-methyl-(4aS,7aS)-octahydro-6H-pyrrolo[3,4-b]pyridin-6-yl]benzoxazinorifamycin] | 0.06 (≈ 66.9 nM) | 0.12 (≈ 134 nM) | 0.001 (≈ 1.11 nM) | 4 (≈ 4460 nM) | 0.004 (≈ 4.46 nM)
